# Reference: the METLIN SMRT retention time set (Domingo-Almenara et al. 2019)
# Experiment: gradient 5% acetonitrile 3 min, to 50% in 2 min, to 85% in 15 min, held 3 min, 100 µL/min
# Conditions: column: Zorbax Extend-C18 2.1 x 50 mm; eluents: water / acetonitrile, 0.1% formic acid
# In short: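 Pure standards were analyzed in mixtures of ~100 molecules using HPLC coupled to a quadrupole time-of-flight mass spectrometer, in both positive and negative ionization mode. Separation used a Zorbax Extend-C18 column (2.1 × 50 mm, 1.8 μm) at 100 μL/min, with water and acetonitrile each containing 0.1% formic acid. Dead and dwell volumes were 40 μL and 900 μL, and data were collected over 3 months. Retention time was read from computationally picked adduct peaks, each inspected manually.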
row,Structure (SMILES),RP-LC retention time [s]
1,Cc1ccc(N2C(=O)CSC2c2ccccc2)cc1 (stereo not given),843
2,COc1ccc(-c2cc(N3CCC(NC(=O)c4cccc(OC(F)(F)F)c4)C3)n[nH]2)cc1 (stereo not given),828
3,COc1ccccc1NC(=O)CSc1ccc(N2CCCC(C(=O)NC3CC3)C2)nn1 (stereo not given),618
4,CCc1onc(C)c1C1CCCN1C(=O)Nc1ccc(OC)c(OC)c1 (stereo not given),796
5,Cc1sc(-c2nnc(C3CC3)o2)cc1NC(=O)C1CC1,819
6,COc1ccc(Cl)c2c(=O)c3c([nH]c12)CCN(CC(=O)Nc1ccc(C)cc1)C3,632
7,CCCCN(Cc1ccco1)C(=O)Cn1nc(Cc2ccncc2)c2ccccc2c1=O,679
8,O=C(Cn1cc(-c2ccccc2)c2ncnc(N3CCOCC3)c21)N1CCCC1,651
9,O=C1CN(C(=O)CN2CCCCC2)C(c2ccccc2)c2cc(Br)ccc2N1 (stereo not given),656
10,Cc1cccc(NS(=O)(=O)c2c[nH]c3ncccc23)c1C,762
11,COc1ccc(Cn2nc3c(S(=O)(=O)N4CCN(c5ccc(F)cc5)CC4)cccn3c2=O)cc1,905
12,CN(C)c1ccc(-c2nc3cnccn3c2Nc2cccc(C(=O)O)c2)cc1,655
13,CCC(C)NC(=O)CCC(=O)N1CCc2c(c(C(=O)N3CCCCC3)nn2C)C1 (stereo not given),645
14,CCN1CCN(C(=O)Cc2ccc(Nc3ncc(F)c(Nc4ccc(C(=O)Nc5ccccc5Cl)cc4)n3)cc2)CC1,684
15,Cc1ccc(-n2ccc(=O)c(-c3nc(-c4ccccc4C)no3)n2)cc1C,1060
16,CCc1ccccc1NC(=O)COc1nc(C)nc2ccccc12,747
17,O=C(NCc1nn(Cc2ccccc2)c2ccccc12)c1cnccn1,858
18,O=C(C1CC1)N1CCC(c2noc(-c3ccccn3)n2)C1 (stereo not given),636
19,CCn1ccc(NC(=O)c2ccccc2)n1,694
20,COc1ccc(-c2nsc(SCC(=O)Nc3ccc4c(c3)OCCO4)n2)cc1,906

row,Structure (SMILES),RP-LC retention time [s]
1,O=C(CSc1nc(N2CCCCC2)nc2ccccc12)Nc1ccc2c(c1)OCO2,694
2,CC1CCCN(CC2CCN(S(=O)(=O)CCc3ccccc3)CC2)C1 (stereo not given),677
3,CC1(C(=O)NCc2ccc(F)cc2)Cn2cnc(C(=O)N3CCOCC3)c2C(=O)N1C1CC1 (stereo not given),616
4,CCn1cc(S(=O)(=O)NCc2ccccc2)c2cccnc21,804
5,Cn1cc(S(=O)(=O)N2CCCCC2)cc1C(=O)N1CCN(c2ccccc2F)CC1,961
6,COc1ccc(Nc2ncccc2S(N)(=O)=O)cc1OC,666
7,O=C(COc1ccc(F)c(F)c1)N1CCC(Nc2cccnc2)C1 (stereo not given),604
8,Cn1cc(CN2CC(F)(F)C[C@H]2COc2ccncc2)c2ccccc21,634
9,Cc1ccc(-c2noc(-c3nn(CC(=O)NC(C)C)c4ccccc34)n2)cc1,1080
10,CCN1CCn2cc(C(=O)NCc3ccc(C(C)C)cc3)nc2C1,644
11,CCNC(=O)c1ccc(-c2csc(C3CC3)n2)cc1,796
12,CCC(CC)NC(=O)C1Cn2cccc2C(=O)N1C (stereo not given),661
13,CCc1nc(-c2ccc(-c3noc(C(C)NC(=O)c4ccco4)n3)cc2)cs1 (stereo not given),980
14,CC1(C)C(=O)NCCN1C(=O)C1COc2ccccc2O1 (stereo not given),628
15,Cc1ccc(CN2CCN(CC(=O)N3CCN(Cc4ccccc4)CC3)C(=O)C2=O)cc1,640
16,CC(=O)Nc1ccc(C2(C(=O)NCc3ccccc3F)CCC2)cc1,732
17,CCOc1ccc(-c2noc(Cn3cnc4c(cnn4-c4ccc(OC)cc4)c3=O)n2)cc1OC,973
18,COc1cccc2c1OC1(C)CC2C(S(=O)(=O)c2ccc(C(C)C)cc2)C(=O)N1 (stereo not given),938
19,O=C(Nc1cccc(F)c1)N1CCC(CCNC(=O)C2(c3ccccc3)CC2)CC1,883

# Other lines, results leading:
row,RP-LC retention time [s],Structure (SMILES)
1,626,CCOc1ccc(-c2noc(N3CCC(C(=O)N4CCN(C)CC4)CC3)n2)cc1OC
2,988,COC(=O)c1sc2ccc(NC(=O)C3CCN(S(=O)(=O)c4cccs4)CC3)cc2c1OC
3,546,Cc1nn(-c2ccc(N3CCCC3)nn2)c(C)c1CCC(=O)N1CCN(c2ccccn2)CC1
4,742,CC(C)c1nncn1C1CCN(S(=O)(=O)Cc2ccc(Cl)cc2)CC1
5,720,CCS(=O)(=O)Nc1ccc(-c2noc(CNS(=O)(=O)c3ccccc3)n2)cc1
6,646,Cc1ccc2c(c1)C(=O)C1(O)CCN(c3ccccc3)C1=N2 (stereo not given)
7,738,Cc1ccc(CNC(=O)C2CCN(S(=O)(=O)c3ccc4[nH]c(=O)ccc4c3)CC2)cc1
8,768,COc1cc(NC(=O)NC2CCN(c3ccccc3)C2=O)cc(OC)c1 (stereo not given)
9,550,Cc1ncsc1CN1CCC(Cc2ncc(C)n2Cc2ccccc2)C1 (stereo not given)
10,733,COC(=O)c1cccc(C(=O)NC2CCN(C(=O)c3cc(-c4cccs4)[nH]n3)CC2)c1
11,689,CCCCS(=O)(=O)N1CCCC(c2nnc(C)s2)C1 (stereo not given)
12,872,COc1ccc(NC(=O)C2CCN(S(C)(=O)=O)c3cc(C)ccc3O2)cc1 (stereo not given)
13,710,CCC(CO)NC(=O)C(=O)Nc1ccccc1SC (stereo not given)
14,759,CCC(=O)Nc1ccc(-n2cnc(C(=O)NC3CCCCCC3)c2)nc1
15,643,COCCC(=O)NCCC1CCN(C(=O)Nc2ccc(F)cc2F)CC1
16,969,COc1ccc(-c2nnc(-c3ccccc3Cl)o2)cc1S(=O)(=O)N1CCCC1
17,607,Cc1[nH]c(C(=O)N2CCCC(C(=O)NCCN3CCOCC3)C2)c(C)c1C(=O)OC(C)C (stereo not given)
18,861,Cc1ccc(NC(=O)N2CCC(CC(=O)N3CCCCC3)CC2)cc1Cl
19,685,O=C(Cn1c(=O)c2cccn2c2ccc(F)cc21)NC1CC1
20,777,CNC(=O)c1sc2nc(-c3cccc(F)c3)c(NCCCOC)n2c1C
21,768,CCOC(=O)c1nc(NCc2cc(OC)ccc2OC)c2ccccc2n1
22,747,COC(=O)c1sccc1NC(=O)C1CCN(Cc2nc(-c3ccc(OC)c(OC)c3)no2)CC1
23,991,C#C[C@]1(O)CCC2C3CCC4=CC(=O)CCC4C3C(=C)CC21CC (stereo not given in full)
24,859,CCN1C(=O)COc2ccc(-c3noc(CNC(=O)Cc4ccc(Cl)cc4)n3)cc21
25,614,N#CCCN1CCN(c2cc(C(=O)O)c3cc(NC(=O)c4cccc(Cl)c4)ccc3n2)CC1
26,986,Cc1ccc(NS(=O)(=O)c2cn(CC(C)C)c3ncccc23)cc1

row,RP-LC retention time [s],Structure (SMILES)
1,1140,COc1ccc(-c2ncc3c(n2)CCN(S(=O)(=O)c2ccc(C)cc2C)C3)cc1
2,929,CC1(C)CC(=O)C2=C(C1)N(CC1CCCO1)C(=O)C2(NC(=O)c1ccc(F)cc1)C(F)(F)F (stereo not given)
3,609,CC(C)NC(=O)N1CCN(Cc2nc3cccnc3n2-c2cccc(F)c2)CC1
4,1080,O=[N+]([O-])c1cccc(-c2nnc3c4cnn(-c5ccc(F)cc5)c4ncn23)c1
5,686,COc1ccccc1-c1nocc1CCC(=O)O
6,576,CCc1ccc(-c2cn3cc(C(=O)NCCN4CCN(CC)CC4)ccc3n2)cc1
7,652,Cc1cc(C)cc(S(=O)(=O)N2CCN(CCc3cn(C)c4ncccc34)CC2)c1
8,1020,O=C(Cc1cccc(Cl)c1)N1CCc2cc(-c3ccno3)ccc21
9,626,Cc1ccc(S(=O)(=O)NCc2ccccn2)c(C)c1C
10,616,CC(C)NC(=O)CCNc1c(-c2ccc(F)cc2)nc2cnccn12
11,613,O=C(c1ccc(-n2c(-c3ccccc3)nc3cccnc32)cc1)N1CCN(c2ccccn2)CC1
12,1030,O=C(Nc1c(F)cc(F)cc1F)c1sc2ccccc2c1Cl
13,887,Cc1ccc(C(=O)N2CCC(COc3ccc(C(=O)NC4CC4)cc3)CC2)cc1C
14,916,Cc1nc2c(NC(=O)COc3ccccc3C)cccn2n1
15,617,CC(C)NC(=O)CCC(=O)N1CCc2c(c(C(=O)N3CCCCC3)nn2C)C1
16,677,COc1cc(OC)cc(C(=O)N2CCC(c3cc(N)on3)CC2)c1
17,1030,O=S(=O)(c1ccc2c(c1)-c1oncc1CO2)N1CCN(c2ccccc2)CC1
18,1020,Cc1coc(C)c1C(=O)Nc1ncc(Cc2ccc(Cl)cc2)s1
19,767,CCOC(=O)c1cc(S(=O)(=O)N2CCCC2C(=O)N2CCCCC2)cn1C (stereo not given)
20,1080,CCCN1C(=O)COc2ccc(-c3noc(C4CC(=O)N(c5cccc(Cl)c5)C4)n3)cc21 (stereo not given)
21,912,O=C(Cn1cccc(-c2nc(-c3ccc(F)cc3)no2)c1=O)Nc1ccccc1Br
22,586,Cn1nc(C(=O)N2CCCC2)c2c1CCN(C(=O)CCC(=O)NCCN1CCCCCC1)C2
23,746,O=C(NCc1ccc(Br)cc1)C1CCN(c2cnc3nccnc3c2)CC1
24,845,Fc1cccc(Cl)c1C1SCc2nc3ccccc3n21 (stereo not given)
25,847,O=C(c1nnc(-c2ccc(S(=O)(=O)N3CCCC3)cc2)o1)N1CCCCC1
